Series [1] addresses T1, Na^+ /H^+ exchanger of rabbit erythrocytes (Oryctolagus cuniculus, UniProt P23791).
T1 construct: determine the Na^+ influx into the erythrocytes via Na^+ /H^+ exchange by flame photometry; endogenous in cells; host or cells: erythrocytes in blood from the ear arteries of cholesterol-fed White New Zealand rabbits (Ivanovas)
Description: Inhibition of the Na^+ /H^+ Exchanger of Rabbit Erythrocytes (amiloride-sensitive Na^+ influx, flame photometry). Type of series: cell-based, rabbit (White New Zealand). The settings on record: cholesterol-fed rabbits, pH 7.4, 37° C. An excerpt: Inhibition of the Na^+ /H^+ Exchanger of Rabbit Erythrocytes
White New Zealand rabbits (Ivanovas) were given a standard diet with 2% of cholesterol for six weeks in order to activate the Na^+ /H^+ exchange and in this way to be able to determine the Na^+ influx into the erythrocytes via Na^+ /H^+ exchange by flame photometry. The blood was removed from the ear arteries and rendered noncoagulable by 25 IU of potassium-heparin. A portion of each sample was used for duplicate determination of the hematocrit by centrifugation. Aliquots of in each case 100 μl were used for measurement of the starting Na^+ content of the erythrocytes.
To determine the amiloride-sensitive sodium influx, 100 μl of each blood sample were incubated in 5 ml portions each of a hyperosmolar salt/sucrose medium (mmol/l: 140 NaCl, 3 KCl, 150 sucrose, 0.1 ouabain, 20 tris-hydroxymethylaminomethane) at pH 7.4 and 37° C. The erythrocytes were then washed three times with ice-cold MgCl2 /ouabain solution (mmol/l: 112 MgCl2, 0.1 ouabain) and hemolyzed in 2.0 ml of distilled water. The intracellular sodium content was determined by flame photometry.
The Na^+ net influx was calculated from the difference between the starting sodium values and the sodium content of the erythrocytes after incubation. The sodium influx which can be inhibited by amiloride resulted from the difference between the sodium content of the erythrocytes after incubation with and without 3×10^-4 mol/l of amiloride. This procedure was also followed with compounds according to the invention.

For series [2] the following is noted: cited from earlier work.
For another series, the system named is rat hearts. The settings on record: isolated rat hearts, cited from earlier work.

Broadly, the pIC50 is the negative decadic logarithm of the IC50, by convention in mol/L. A higher pIC50 goes with a small IC50.

pIC50: −log10 of the molar value. Where a name gives a salt, the structure may show the parent alone.

T1 sequence (P23791 whole entry): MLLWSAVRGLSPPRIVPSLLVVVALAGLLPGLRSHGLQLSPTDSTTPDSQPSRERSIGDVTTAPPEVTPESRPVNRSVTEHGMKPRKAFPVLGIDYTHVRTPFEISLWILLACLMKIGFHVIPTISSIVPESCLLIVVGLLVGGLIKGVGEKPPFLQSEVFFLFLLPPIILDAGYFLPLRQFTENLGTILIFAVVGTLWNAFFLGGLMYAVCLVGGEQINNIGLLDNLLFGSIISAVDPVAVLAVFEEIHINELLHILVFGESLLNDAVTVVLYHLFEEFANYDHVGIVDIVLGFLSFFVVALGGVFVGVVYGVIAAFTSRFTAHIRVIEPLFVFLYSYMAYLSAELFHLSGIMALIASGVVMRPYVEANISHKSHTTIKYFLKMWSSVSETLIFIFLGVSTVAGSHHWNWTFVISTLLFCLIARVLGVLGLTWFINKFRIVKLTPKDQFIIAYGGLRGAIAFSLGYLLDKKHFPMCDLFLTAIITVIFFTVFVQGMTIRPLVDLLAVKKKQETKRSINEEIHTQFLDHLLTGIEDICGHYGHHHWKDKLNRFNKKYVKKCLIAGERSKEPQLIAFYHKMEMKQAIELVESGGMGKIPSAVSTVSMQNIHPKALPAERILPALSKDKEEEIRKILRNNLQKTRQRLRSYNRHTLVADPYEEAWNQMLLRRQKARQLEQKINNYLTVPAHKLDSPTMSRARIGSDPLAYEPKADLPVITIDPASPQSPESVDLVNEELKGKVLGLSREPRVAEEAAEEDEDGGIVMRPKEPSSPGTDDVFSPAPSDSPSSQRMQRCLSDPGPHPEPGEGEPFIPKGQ

In series [1], `NC(N)=NC(=O)c1ccc(Oc2ccc[n+]([O-])c2)c(C(F)(F)F)c1` [Example 1, 4-(pyridine N-oxide-3-yloxy)-3-trifluoromethyl-benzoylguanidine, hydrochloride] gave a pIC50 of 7.10.
`Cc1ccc2cc(Oc3ccc(C(=O)N=C(N)N)cc3S(C)(=O)=O)ccc2[n+]1[O-]` [Example 2, 4-(quinaldine N-oxide-6-yloxy)-3-methylsulfonyl-benzoylguanidine, hydrochloride] gave a pIC50 in series [1] of 6.52.
On the same count and under the same terms, the value for `Cc1ccc2cc(Oc3ccc(C(=O)N=C(N)N)cc3C(F)(F)F)ccc2[n+]1[O-]` [Example 3, 4-(quinaldine N-oxide-6-yloxy)-3-trifluoromethyl-benzoylguanidine, hydrochloride] was 7.72.
Take `NC(N)=NC(=O)c1nc(Cl)c(N)nc1N` [amiloride, Amiloride]: in series [2] (Circulation 79, 1257-63 (1989)), the antiarrhythmic effect result is “only weak”. In addition, in series [2] (accompanies the antiarrhythmic effect), the “accompanying action (side-effects)” value was “antihypertensive and saluretic action”. Besides, the “suppression of artificially induced ventricular fibrillation” value with rat hearts (Eur. Heart J. 9 (suppl. 1): 167 (1988)) is reported as “suppressed completely”.
With `CCN(c1nc(N)c(C(=O)NC(=N)N)nc1Cl)C(C)C` [ethylisopropylamiloride], the “potency relative to amiloride in this model (ventricular fibrillation)” value in the series with rat hearts (compared with amiloride) is reported as “even more potent than amiloride”.

The values above are taken from US5641792A, “Benzoylguanidines substituted by heterocyclic N-oxide, process for their preparation and pharmaceutical compositions containing them” (priority 1994, dated 1997).
